In patent publication US20240327463A1, “ANTIBACTERIAL PRODUCTS” (priority 2017, published 2024):
Converted amounts (≈) assume the structure as drawn. Bridge positions count the residues as written; N and C are the ends. Square brackets hold non-standard residues; d marks the D form. Peptide text beside a SMILES is read from it. ξ: configuration not given here. dNMeF = CN[C@H](Cc1ccccc1)C(=O)O; Ile(3ξ) = CCC(C)[C@H](N)C(=O)O

Tests used:
MRSA ATCC 33591 = conditions: for MIC (MRSA): ATCC 33591
How it was run: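 Twofold dilutions of DMSO-solubilised peptides (from 512 μg/ml) in Mueller Hinton; 24 h incubation, 37° C; visible growth scored.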

VRE 1004 = type: cell-based, Enterococcus faecalis
Description: (§1) Bacteria were grown on Mueller Hinton broth (oxoid). All incubations were at 37° C. Dilutions were carried out using Mueller Hinton. […] This process was repeated up to well 11. […] This was repeated three times. […] Results are tabulated in the Examples.

VRE 1002 = type: cell-based, Enterococcus faecalis
Description: as §1

VRE 1001 = type: cell-based, Enterococcus faecalis
Description: as §1

VRE 1008 = type: cell-based, Enterococcus faecalis
Description: as §1

VRE ATCC 700802 = assay: microbe, parasite or virus in culture; conditions: ATCC 700802
Description: (§2) For MIC testing all peptides were dissolved in DMSO (according to the method of L. L. Ling, et al., Nature 2015, 517, 455-459). Bacteria were grown on Mueller Hinton broth (oxoid). All incubations were at 37° C. Dilutions were carried out using Mueller Hinton. 100 μl of autoclaved Mueller Hinton broth was added to wells 2-12 on a 96-well plate. 200 μl of the peptide was added to well one at a concentration of 512 μg/ml. 100 μl of peptide in well one was taken up and pipetted into well two. The mixture was then mixed via pipetting before 100 μl was taken up and pipetted into well three. This process was repeated up to well 11. […] This was repeated three times. The 96-well plates were then incubated for 24 hours. The MIC was determined to be the lowest concentration at which there was no growth visible.

MRSA DR 42412 (sputum) = assay: microbe, parasite or virus in culture; conditions: DR 42412 (sputum)
Description: as §2

VRE ATCC 29212 = assay: microbe, parasite or virus in culture; conditions: ATCC 29212
Description: as §2

MRSA DM21455 (eye) = assay: microbe, parasite or virus in culture; conditions: DM21455 (eye)
Description: as §2

[1] = system: Staphylococcus aureus ATCC 29213; assay: microbe, parasite or virus in culture; conditions: ATCC 29213
Description: as §2

MRSA ATCC 700699 = assay: microbe, parasite or virus in culture; conditions: ATCC 700699
Description: as §2

[2] = system: Staphylococcus saprophyticus ATCC 15305; type: cell-based; conditions: ATCC 15305
Description: as §1

SA4299 = type: cell-based; conditions: Table 11
Description: as §1

[3] = system: Staphylococcus saprophyticus ATCC 49453; type: cell-based; conditions: ATCC 49453
Description: as §1

SE12228 = type: cell-based
Description: as §1

[4] = system: Bacillus Subtilis ATCC 6633; type: cell-based
Description: as §1

[5] = system: Staphylococcus saprophyticus ATCC 49907; type: cell-based; conditions: ATCC 49907
Description: as §1

[6] = system: Bacillus Cereus ATCC 11788; type: cell-based
Description: as §1

[7] = system: Staphylococcus saprophyticus ATCC BAA 750; type: cell-based; conditions: ATCC BAA 750
Description: as §1

MRSA 1003 = type: cell-based, Staphylococcus aureus
Description: as §1

[8] = system: human lung epithelial cell line A549; assay: Cytotoxicity in A549 cells (MTS assay, high content imaging); conditions: A549; 24 h
Description: (§3) It was important to evaluate the cytotoxicity of Compound 26 on mammalian cells prior to in vivo studies. The cytotoxicity of Compound 26 in human lung epithelial cell line A549 and primary dermal fibroblasts (hDFs) was determined. Both of these cell culture models are already established for evaluation of cytotoxicity of antimicrobial peptides.
(§4) The stock solution of Compound 26 (500 μg/ml) was prepared fresh by directly dissolving Compound 26 in cell culture medium and used. Cells were treated with dimethyl sulfoxide (DMSO, 0.1% v/v) or nocodazole (5 μg/ml dissolved in DMSO) as controls. At the end of the treatment period, metabolic activities of cells were quantified by MTS-based cell viability assay. […] After 24 h treatment with Compound 26, A549 cells (c) and hDFs (d) were fixed, fluorescently stained with rhodamine-phalloidin (red), alexa fluor 488 conjugated anti-α-tubulin (green) and Hoechst 33342 (blue) and imaged using IN Cell Analyzer 2200 automated microscope. Representative images of cells treated with Compound 26 (62.5 μg/ml for 24 h) or nocodazole (10 μg/ml, toxicity control) are shown in FIG. 2 c,d.

[9] = system: human primary dermal fibroblasts (hDFs); assay: Cytotoxicity in primary dermal fibroblasts (MTS assay, high content imaging); conditions: hDFs; 24 h
Description: as §3, §4

CC[C@@H](C)[C@@H](NC(=O)[C@@H](CCCNC(=N)N)NC(=O)[C@H](CO)NC(=O)[C@@H](NC(=O)[C@@H](Cc1ccccc1)NC)[C@@H](C)CC)C(=O)N[C@H](C(=O)N[C@@H](CO)C(=O)N[C@H]1C(=O)N[C@@H](CCCNC(=N)N)C(=O)N[C@@H](CC(C)C)C(=O)N[C@@H]([C@@H](C)CC)C(=O)O[C@H]1C)[C@@H](C)CC [Compound 30, D-Arg4-Arg9-Leu10-teixobactin] (H-[dNMeF]IS[dR][dI]IS[dT]RLI; ester 8-C)
MIC against MRSA ATCC 33591 (MRSA ATCC 33591; MRSA ATCC 33591): 1 µg/mL (≈ 0.761 µM)
MIC (VRE 1004): 1 µg/mL (≈ 0.761 µM)
MIC (VRE 1002): 1 µg/mL (≈ 0.761 µM)
MIC (VRE 1001): 1 µg/mL (≈ 0.761 µM)
MIC (VRE 1008): 1 µg/mL (≈ 0.761 µM)
MIC (VRE ATCC 700802): 1 µg/mL (≈ 0.761 µM)
MIC (MRSA DR 42412 (sputum)): 1 µg/mL (≈ 0.761 µM)
MIC (VRE ATCC 29212): 1 µg/mL (≈ 0.761 µM)
MIC (MRSA DM21455 (eye)): 1 µg/mL (≈ 0.761 µM)
MIC [1]: 1 µg/mL (≈ 0.761 µM)
MIC (MRSA ATCC 700699): 1 µg/mL (≈ 0.761 µM)
MIC [2]: <0.0625 µg/mL
MIC (SA4299): 0.5 µg/mL (≈ 0.38 µM)
MIC [3]: <0.0625 µg/mL
MIC (SE12228): <0.0625 µg/mL
MIC [4]: <0.0625 µg/mL
MIC [5]: <0.0625 µg/mL
MIC [6]: 1 µg/mL (≈ 0.761 µM)
MIC [7]: <0.0625 µg/mL
MIC (MRSA 1003): 0.5 µg/mL (≈ 0.38 µM)

CC[C@@H](C)[C@@H](NC(=O)[C@@H](CCC(N)=O)NC(=O)[C@H](CO)NC(=O)[C@@H](NC(=O)[C@@H](Cc1ccccc1)NC)[C@@H](C)CC)C(=O)N[C@H](C(=O)N[C@@H](CO)C(=O)N[C@H]1C(=O)N[C@@H](CCCNC(=N)N)C(=O)N[C@@H](CC(C)C)C(=O)N[C@@H]([C@@H](C)CC)C(=O)O[C@H]1C)[C@@H](C)CC [Compound 27, Arg9-Leu10-teixobactin] (H-[dNMeF]IS[dQ][dI]IS[dT]RLI; ester 8-C)
MIC (MRSA) (MRSA ATCC 33591): 0.125 µg/mL (≈ 0.0972 µM)
MIC (VRE 1004): 0.25 µg/mL (≈ 0.194 µM)
MIC (VRE 1002): 1 µg/mL (≈ 0.777 µM)
MIC (VRE 1001): 0.5 µg/mL (≈ 0.389 µM)
MIC (VRE 1008): 0.25 µg/mL (≈ 0.194 µM)
MIC (VRE ATCC 700802): 0.5 µg/mL (≈ 0.389 µM)
MIC (MRSA DR 42412 (sputum)): <0.0625 µg/mL
MIC (VRE ATCC 29212): 1 µg/mL (≈ 0.777 µM)
MIC (MRSA DM21455 (eye)): 0.25 µg/mL (≈ 0.194 µM)
MIC [1]: 0.5 µg/mL (≈ 0.389 µM)
MIC (MRSA ATCC 700699): 0.5 µg/mL (≈ 0.389 µM)
MIC [2]: <0.0625 µg/mL
MIC (SA4299): 0.25 µg/mL (≈ 0.194 µM)
MIC [3]: <0.0625 µg/mL
MIC (SE12228): <0.0625 µg/mL
MIC [4]: <0.0625 µg/mL
MIC [5]: <0.0625 µg/mL
MIC [6]: 0.25 µg/mL (≈ 0.194 µM)
MIC [7]: <0.0625 µg/mL
MIC (MRSA 1003): 0.25 µg/mL (≈ 0.194 µM)

CCC(C)[C@@H]1NC(=O)[C@H](CCCNC(=N)N)NC(=O)[C@H](NC(=O)[C@H](CO)NC(=O)[C@@H](NC(=O)[C@H](NC(=O)[C@@H](CCC(N)=O)NC(=O)[C@H](CO)NC(=O)[C@@H](NC(=O)[C@@H](Cc2ccccc2)NC)[C@@H](C)CC)[C@H](C)CC)[C@@H](C)CC)[C@H](C)OC(=O)[C@H]([C@@H](C)CC)NC1=O (some centres unmarked) [Compound 34, Arg9-Ile10-teixobactin] (H-[dNMeF]IS[dQ][dI]IS[dT]R[Ile(3ξ)]I; ester 8-C)
MIC (MRSA) (MRSA ATCC 33591): 0.25 µg/mL (≈ 0.194 µM)
MIC (VRE 1004): 1 µg/mL (≈ 0.777 µM)
MIC (VRE 1002): 1 µg/mL (≈ 0.777 µM)
MIC (VRE 1001): 1 µg/mL (≈ 0.777 µM)
MIC (VRE 1008): 1 µg/mL (≈ 0.777 µM)
MIC (VRE ATCC 700802): 1 µg/mL (≈ 0.777 µM)
MIC (MRSA DR 42412 (sputum)): 0.125 µg/mL (≈ 0.0972 µM)
MIC (VRE ATCC 29212): 1 µg/mL (≈ 0.777 µM)
MIC (MRSA DM21455 (eye)): 0.5 µg/mL (≈ 0.389 µM)
MIC [1]: 1 µg/mL (≈ 0.777 µM)
MIC (MRSA ATCC 700699): 1 µg/mL (≈ 0.777 µM)
MIC [2]: <0.0625 µg/mL
MIC (SA4299): 1 µg/mL (≈ 0.777 µM)
MIC [3]: <0.0625 µg/mL
MIC (SE12228): <0.0625 µg/mL
MIC [4]: 0.125 µg/mL (≈ 0.0972 µM)
MIC [5]: <0.0625 µg/mL
MIC [6]: 0.5 µg/mL (≈ 0.389 µM)
MIC [7]: <0.0625 µg/mL
MIC (MRSA 1003): 0.5 µg/mL (≈ 0.389 µM)

COC(=O)Nc1nc2ccc(C(=O)c3cccs3)cc2[nH]1 [nocodazole, reference compound]
cell morphology, high content images [8]: substantial loss of adhered cells
cell morphology, high content images [9]: substantial loss of adhered cells
